Experimental data published in patent US20230263944A1, “DUAL FUNCTION SURFACE FOR CELL CAPTURE AND SPREADING” (THE ROYAL INSTITUTION FOR THE ADVANCEMENT OF …, priority 2020, published 2023).

How the values were obtained:
HUVEC cells = test: HUVEC seeding on Protein G / anti-CD144 / RGD-TAMRA polystyrene well plate; format: cell-based, human; conditions: 3 h shaker incubation; for HUVEC attachment to the surface: serum free medium
Description: A 6 well plate was seeded with the following conditions in each well (W1-W6):
The functionalized surface was rinsed with phosphate buffer saline (PBS) and […]. HUVEC cells were used and were seeded in each well in serum free medium at a concentration of 19,000 cells/mL. The plate was incubated for 3 hours on an incubation shaker then imaged under the microscope. The plate were left to incubate for another 21 h (total 24 h) at 37° C. 5% CO2 and imaged again.

[1] = test system: endothelial colony forming cells (ECFCs); test: ECFC seeding on modified polystyrene surfaces under static conditions; format: cell-based, human; conditions: vs unmodified aminated polystyrene surfaces
Text: Cells were stained for F-actin (red) and DAPI (blue). Images were used to quantify cell number and surface area per cell. Unmodified=aminated polystyrene surfaces without further modifications. **p<0.01, *p<0.05 with N=3 experimental replicas.
To test whether the bifunctional surfaces can impart two significant effects on cells of interests, ECFCs derived from human peripheral blood were either seeded on the modified surfaces under static conditions or flown over the surfaces in a perfusion loop under 1 dyn/cm^2 wall shear stress. […] The two molecules were mixed together at the center point concentrations of the previously described surface model.

ECFCs = test: Surface endothelialization of functionalized CoCr vascular stents in a perfusion model; format: cell-based, human; conditions: flow
Text: (A) Representative fluorescence images of ECFCs on the surface of modified stents (after plasma amination) and an unmodified control after 2 and half hours of circulating ECFCs over the stents in a perfusion model at 1 dyn/cm^2 wall shear stress. ECFCs were stained for F-actin (red) and nuclei (blue). Phase contrast images show the corresponding stent structure. Flow direction was from right to left. (B) Quantification of cell adhesion parameters from the fluorescence images. *P<0.05 and **P<0.01 with N=3 experimental replicas from different ECFC donors.
As encompassed herein, the modifications can be applied to different aminated substrates—as shown on polystyrene (FIGS. 4-13) and on cobalt-chromium (CoCr) (FIGS. 16-18). The modifications can be applied to different geometries while retaining the benefits observed on flat substrates.

[2] = ELISA on L605 CoCr substrates modified with peptides and antibodies; conditions: dark, ambient conditions, covalent peptide grafting vs adsorption
Description: (A) Without S-SMPB, peptides adsorb onto L605 which can change antibody orientation on surfaces. (B) 12-well plate with CoCr samples at the end of the ELISA. For custom ELISAs, RGD-TAMRA was detected using anti Rhodamine followed by HRP-labelled secondary antibodies. Anti CD309 was detected using an HRP-labelled F(ab′)2 secondary antibody on a separate set of samples. HRP activity was quantified by measuring A450 of supernatant collected after 30 min incubation with TMB substrate+addition of stop solution. […] N=3 L605 samples except G-I (N=9 images).

[3] = ELISA of functionalized CoCr surfaces after gamma-irradiation; format: physicochemical; conditions: two one-side t-test, 15% difference considered practically equivalent
Text: (A) Principle of the ELISA method used to detect immobilized antibodies via horseradish peroxidase (HRP) conjugated secondary antibodies. (B) ELISA method used to detect immobilized RGD-TAMRA peptides via primary anti rhodamine antibodies followed by HRP conjugated secondary antibodies.

| Substance | HUVEC spreading (HUVEC cells) | HUVEC attachment to the surface (HUVEC cells) | surface area of the ECFCs (cell spreading) [1] | surface area of the ECFCs (cell spreading) ([1]; listed as RGD peptides) | cell spreading on CoCr stents (ECFCs) | ELISA signal after 28d storage [2] | ELISA signal after gamma-irradiation [3] |
| --- | --- | --- | --- | --- | --- | --- | --- |
| collagen | spread more | strongly attach |  |  |  |  |  |
| CGK(PEG3-TAMRA)GGRGDS-NH2 [RGD-TAMRA] |  | strongly attach | significantly higher than the controls | increase cell spreading | higher cell spreading | significantly higher | practically equivalent |
